How the values were obtained:
Type in all cases: cell-based, mice
[1] = system: naïve OVA323-339-specific OT-II CD4^+ T cells; assay: BMDC / naive OT-II CD4+ T cell co-culture, Th1 differentiation; details: with IFN-γ
Text: (§1) FIG. 4A-4K: Effect of inosine on T cell differentiation and dependency on classical dendritic cells of ICB therapy efficacy. (a) Scatter plot of untargeted metabolomics data in the serum of anti-CTLA-4 treated, tumor-bearing B.p. monocolonized compared to C.sp. monocolonized and germ-free (GF) mice. Grey circles or dotted grey circles depict inosine or inosine fragments/adducts, respectively. […] (c) Naïve CD4^+ T cells were co-cultured with bone marrow derived dendritic cells and IFN-γ. Quantification of T-bet^+CD3ε^+CD4^+ T cells 48 hours after co-culture in the presence or absence of inosine, A2A receptor inhibitor (ZM241385), cell permeable cAMP (db-cAMP) and protein kinase A inhibitor (RP-8-CPT-CAMPS). (d) Same as (c) without IFN-γ. (e) Representative plot and quantification (left and right panel) of phospho-CREB (Ser133) levels in naïve CD4^+ T cells cultured with anti-CD3/anti-CD28 coated beads for 1 hour in the presence or absence of inosine. (f) Schematic overview of experimental setup to deplete classical dendritic cells during MC38 tumor challenge and anti-CTLA-4 treatment. Intratumoral (g) frequency of CD8^+ T cells (h) IFN-γ^+CD8^+ T cells. (i and j) same as (g and h), but CD4^+ T cells and (k) tumor weight at […]. Data are mean±SEM and pooled from two individual experiments (a-b) n=5-8 samples/group (c-e) 10-15 biological replicates/group (f-k) 10 mice/group. *, P<0.05; **, P<0.01; ***, P<0.001; ****, P<0.0001
Bone marrow derived dendritic cells (BMDCs) were generated from flushed bone marrow cells, maintained in RPMI-1640 (Sigma) supplemented with 10% FBS, 50 μm 2-Mercaptoethanol (Sigma) 100 units/ml penicillin, 100 μg/ml streptomycin sulfate and 20 ng/ml rm GM-CSF (R&D). Medium was exchanged after 48 hours and 72 hours. 5 days after culture, a magnetic cell sorting step was performed to enrich for CD11c^+ cells (Miltenyi Biotec). CD11c^+ cells were seeded in 96 flat bottom wells and pulsed with 20 ng/ml OVA323-339 and 100 ng/ml LPS (both Sigma) for 18 hours. In some conditions BMDCs were also cultured with 10 ng/ml rmIFN-γ (R&D).
Negative selection magnetic cell sorting (Miltenyi Biotec) was used to enrich naïve OT-II CD4^+ T cells. Naïve OT-II CD4^+ T cells were then co-cultured with BMDCs at a ratio of 2:1 or stimulated with anti-CD3/anti-CD28 T cell activation beads (Thermofisher) at a ratio of 1:1 for 48 hours prior to restimulation with PMA/lonomycin in the presence of Brefeldin-A and analysis (see Single cell preparation and flow cytometry for details). In some conditions cells were additionally cultured with various combinations of 2 μg/ml anti-CTLA-4, 100 μM db-cAMP (Sigma), 5 μM ZM 241385 (Sigma), 300 μM Rp-8-CPT-CAMPS (Cayman Chemical) or 2 mM inosine (Sigma) as described previously (He et al., 2017; Yao et al., 2013).

naïve CD4^+ T cells = assay: Naive CD4+ T cells with anti-CD3/anti-CD28 coated beads; details: levels of adenosine in the serum
Text: as §1
FIG. 16A-16J: Context dependent effect of inosine on Th1 T cell differentiation. (a) Naïve CD4^+ T cells were co-cultured with bone marrow derived dendritic cells without IFN-γ. Quantification of T-bet^+CD3e^+CD4^+ T cells 48 hours after co-culture in the presence or absence of inosine and anti-CTLA-4, as indicated. (b) Naïve CD4^+ T cells were cultured anti-CD3/anti-CD28 coated beads at a ratio of 1:1 without IFN-γ for 48 hours. Representative plot and quantification of IL12Rβ2 surface expression on CD4^+ T cells in the presence or absence of inosine (left and right panel). (c) Quantification of T-bet^+CD3e^+CD4^+ T cells 48 hours after co-culture in the presence or absence of inosine, db-cAMP and anti-CTLA-4 as indicated. (d) Naïve, A2AR-deficient CD4^+ T cells were cultured with anti-CD3/anti-CD28 coated beads at a ratio of 1:1 without IFN-γ. Quantification of T-bet^+CD3e^+CD4^+ T cells 48 hours after co-culture in the presence or absence of inosine or db-cAMP (e) Representative plot and quantification (left and right panel) of pCREB expression of anti-CD3/anti-CD28 bead co-cultured CD4^+ T cells in the presence or absence of inosine or db-cAMP 1 hour after stimulation. Analysis through flow cytometry. (f and g) Naïve, wild type CD4^+ T cells were cultured with anti-CD3/anti-CD28 coated beads at a ratio of 1:1. Il12rb2 and Ifng gene transcripts (normalized to Gapdh) were evaluated 24 and 48 hours following inosine (1 mM) stimulation. Expression was normalized to cells treated with medium. Analysis through quantitative PCR assay (h) Naïve CD4^+ T cells were cultured with anti-CD3/anti-CD28 coated beads at a ratio of 1:1 without IFN-γ for 24 hours. Then inosine or vehicle was added at the indicated concentrations for another 48 hours before T cell differentiation and activation was assessed. (i) Adenosine concentrations in the duodenal-, jejunal- or cecal content of B.p. monocolonized mice and in the serum of B.p. or C.sp. monocolonized anti-CTLA-4 treated mice. (j) Naïve CD4^+ T cells were cultured with anti-CD3/anti-CD28 coated beads at a ratio of 1:1 without IFN-γ for 24 hours. Adenosine or was added then in the indicated concentrations for another 48 hours followed by T cell differentiation and activation was assessed through flow cytometry. […]

[2] = system: A2AR-deficient CD4^+ T cells; assay: A2AR-deficient naive CD4+ T cells with anti-CD3/anti-CD28 coated beads
Procedure: FIG. 16A-16J: Context dependent effect of inosine on Th1 T cell differentiation. (a) Naïve CD4^+ T cells were co-cultured with bone marrow derived dendritic cells without IFN-γ. Quantification of T-bet^+CD3e^+CD4^+ T cells 48 hours after co-culture in the presence or absence of inosine and anti-CTLA-4, as indicated. (b) Naïve CD4^+ T cells were cultured anti-CD3/anti-CD28 coated beads at a ratio of 1:1 without IFN-γ for 48 hours. Representative plot and quantification of IL12Rβ2 surface expression on CD4^+ T cells in the presence or absence of inosine (left and right panel). (c) Quantification of T-bet^+CD3e^+CD4^+ T cells 48 hours after co-culture in the presence or absence of inosine, db-cAMP and anti-CTLA-4 as indicated. […] Quantification of T-bet^+CD3e^+CD4^+ T cells 48 hours after co-culture in the presence or absence of inosine or db-cAMP (e) Representative plot and quantification (left and right panel) of pCREB expression of anti-CD3/anti-CD28 bead co-cultured CD4^+ T cells in the presence or absence of inosine or db-cAMP 1 hour after stimulation. […] Il12rb2 and Ifng gene transcripts (normalized to Gapdh) were evaluated 24 and 48 hours following inosine (1 mM) stimulation. […] Analysis through quantitative PCR assay (h) Naïve CD4^+ T cells were cultured with anti-CD3/anti-CD28 coated beads at a ratio of 1:1 without IFN-γ for 24 hours. […]

`Nc1nc(NCCc2ccc(O)cc2)nc2nc(-c3ccco3)nn12` [ZM241385, reference compound] was tested, and the “effect of inosine on Th1 differentiation” value ([1]; inhibitor added (5 μM ZM 241385; 300 μM Rp-8-CPT-CAMPS)) was “completely abrogated the effect of inosine”.

For `Nc1ncnc2c1ncn2[C@@H]1O[C@H](CO)[C@@H](O)[C@H]1O` [adenosine, reference compound], the “Th1 activation and effector function, adenosine dose response” value (naïve CD4^+ T cells) was “insufficient to promote Th1 activation and effector function”.

In the case of `CCCC(=O)Nc1ncnc2c1ncn2[C@@H]1O[C@@H]2COP(=O)(O)O[C@H]2[C@H]1OC(=O)CCC` [db-CAMP, reference compound], the “Th1 differentiation and phosphorylation of CREB” value [2] is reported as “increased Th1 differentiation and phosphorylation of CREB in A2AR-deficient T cells” and the Th1 differentiation ([1]; 100 μM db-cAMP) is reported as “restored Th1 differentiation and bypassed the need for inosine”.

— US20240181049A1, “HARNESSING THE POWER OF MICROBIOTA AND METABOLITES FOR THE TREATMENT OF CANCER” (UTI LIMITED PARTNERSHIP, priority 2019, published 2024)
